Data: patent publication US6632621B1, “G protein-coupled receptor-like receptors and modulators thereof” (priority 1999, dated 2003)
Read-outs that look alike come from different tables or passages of the source. Where a SMILES comes first, the peptide text is derived from it. Where no end group is shown, it is not given here. [ ]: non-standard residue; d: D form. Tyr(3-I) = N[C@@H](Cc1ccc(O)c(I)c1)C(=O)O; pGlu = O=C1CC[C@@H](C(=O)O)N1

What was measured:
CEGPCR12h receptor = molecular target: T1, CEGPCR12h receptor (Caenorhabditis elegans, UniProt Q20275); experiment: [35S]GTPγS binding assay, CEGPCR12h expressed in CHO cells; assay type: biochemical, C. elegans; details: for activity at single concentration: peptides tested at 5 μM
T1 sequence (Q20275 1-402): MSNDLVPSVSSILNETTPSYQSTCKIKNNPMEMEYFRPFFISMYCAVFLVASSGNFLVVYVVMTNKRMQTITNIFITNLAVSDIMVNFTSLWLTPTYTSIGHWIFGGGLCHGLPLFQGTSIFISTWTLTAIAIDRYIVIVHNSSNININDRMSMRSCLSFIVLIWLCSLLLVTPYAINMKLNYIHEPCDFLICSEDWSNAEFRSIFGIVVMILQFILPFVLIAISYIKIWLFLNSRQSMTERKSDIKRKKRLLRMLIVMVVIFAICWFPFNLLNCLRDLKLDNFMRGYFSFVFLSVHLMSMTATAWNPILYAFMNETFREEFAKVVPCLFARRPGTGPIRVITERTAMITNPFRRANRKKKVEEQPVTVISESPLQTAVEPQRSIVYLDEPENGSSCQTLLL
Procedure: (§1) Recombinant pCR3.1 clones encoding invertebrate GPCR-like receptors were transformed into wild-type CHO-K1 cells and functional expression was achieved using a temperature-shift incubation protocol. The CHO-K1 cells were cultured at 37° C. in a humidified atmosphere of 5% CO2 in air in DMEM medium supplemented with 10% heat-inactivated fetal bovine serum (i.e., FBS), 10 μg/ml gentamicin, and 0.1 mM nonessential amino acids to give complete DMEM medium. Additionally, for incubations at temperatures lower than 37° C., the medium was fortified with 10 mM HEPES (pH 7.4). Cells were transfected with recombinant pCR3.1 clones containing GPCR-like receptor DNAs, using LipofectAMINE PLUS™, essentially according to the manufacturer's instructions. […] In separate plastic tubes, PLUS (20 μl/plate; Life Technologies) was added to 0.75 ml/plate of recombinant plasmid DNA in OptiMEM (5 μg/plate; Gibco/BRL—Life Technologies), mixed and incubated at room temperature for 15 minutes. Separately, LipofectAMINE (30 μl/plate) was mixed with 0.75 ml OptiMEM and added to the pre-complexed DNA/PLUS mixture and incubated at room temperature for 15 minutes. The culture medium was then replaced with serum-free transfection medium (DMEM, 5 ml/plate). The DNA-PLUS-LipofectAMINE complex was then added to the plates (1.5 ml/plate) and mixed gently into the medium, followed by a 3 hour incubation at 37° C. in 5% CO2. At this time, the medium was supplemented with complete DMEM medium containing 20% FBS (6.5 ml/plate) and incubation was continued at 37° C. in 5% CO2. After a total of 24 hours at 37° C. in 5% CO2, the medium was replaced with complete DMEM medium fortified with 10 mM HEPES (10 ml/plate) and the cells were moved to an incubator maintained at 28-30° C. in a humidified atmosphere of 5% CO2 in air. The incubation continued for an additional 24 hours, typically at the lower temperature indicated above. A plasmid encoding Green Fluorescent Protein (i.e., GFP, 4 μg/plate) was used for transient GFP expression in CHO-K1 cells to estimate the transfection yields under the same conditions as used for GPCR-like receptor polynucleotides.
(§2) To assess expression, membranes were prepared from transfected CHO-K1 cells. Transfected cells were washed once with ice-cold Dulbecco's phosphate-buffered saline (i.e., PBS), 5 ml per 10 cm plate, and the cells were scraped into 5 ml of the same buffer. Cell suspensions from multiple plates were combined and centrifuged at 500×g for 10 minutes at 4° C. The cell pellet was reconstituted in ice-cold TEE (25 mM Tris, pH 7.4, 5 mM EGTA, 5 mM EDTA). Convenient aliquots were snap-frozen in liquid nitrogen and stored at −70° C. After thawing, the cells were homogenized and centrifuged at 500×g for 5 minutes at 4° C. to pellet nuclei and unbroken cells. Tile supernatant was centrifuged at 47,000×g for 30 minutes at 4° C. The membrane pellet was washed once with TEE, resuspended in 20 mM HEPES, pH 7.4, 100 mM NaCl, 10 mM MgCl2, 1 mM EDTA (assay buffer), distributed into aliquots of 0.5-1.0 ml, and frozen in liquid nitrogen. Membrane aliquots were stored at −70° C. Membrane protein concentration was determined using the BCA Protein Assay Reagent from Pierce (Rockford, Ill.), with bovine serum albumin (i.e., BSA) as a standard.
(§3) Aliquots of cell membranes prepared as described above and stored at −70° C. were thawed, homogenized, and diluted into buffer containing 20 mM HEPES, pH 7.4, 10 mM MgCl2, 1 mM EDTA, and 100 mM NaCl at a concentration of 10-50 μg/ml. Reaction mixtures were prepared in 96-well polypropylene plate, Nunc. Twenty microliters of a 10× putative modulator compound (including but not limited to potential peptide ligands) solution or a water control (20 μl), 18.2 µM GDP (0.11 ml, 10 μM final concentration), and a membrane preparation were mixed and placed on ice. The modulator/ligand-GDP-membrane mixtures were incubated for 20 minutes at room temperature on a shaking platform and then placed on ice.

CEGPCR16 receptor = molecular target: T2, CEGPCR16 receptor (Caenorhabditis elegans, UniProt Q9XXU4); experiment: [35S]GTPγS binding assay, CEGPCR16 expressed in CHO cells; assay type: biochemical, C. elegans
T2 sequence (Q9XXU4 1-365): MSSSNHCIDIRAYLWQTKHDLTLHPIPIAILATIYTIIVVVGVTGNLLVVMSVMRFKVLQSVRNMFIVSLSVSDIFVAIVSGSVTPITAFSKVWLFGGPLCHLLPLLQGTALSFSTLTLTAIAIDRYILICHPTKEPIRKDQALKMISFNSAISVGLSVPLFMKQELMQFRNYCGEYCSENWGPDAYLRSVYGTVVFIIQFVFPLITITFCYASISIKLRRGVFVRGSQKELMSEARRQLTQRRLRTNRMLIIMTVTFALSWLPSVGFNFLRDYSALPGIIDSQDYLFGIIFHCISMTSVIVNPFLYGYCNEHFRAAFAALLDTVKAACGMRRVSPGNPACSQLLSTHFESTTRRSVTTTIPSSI
Procedure: as §1, §2, §3

CEGPCR5 = molecular target: T3, CEGPCR5 (Caenorhabditis elegans, UniProt Q18179); experiment: [35S]GTPγS binding assay, CEGPCR5 expressed in CHO cells; assay type: biochemical, C. elegans
T3 sequence (Q18179 1-402): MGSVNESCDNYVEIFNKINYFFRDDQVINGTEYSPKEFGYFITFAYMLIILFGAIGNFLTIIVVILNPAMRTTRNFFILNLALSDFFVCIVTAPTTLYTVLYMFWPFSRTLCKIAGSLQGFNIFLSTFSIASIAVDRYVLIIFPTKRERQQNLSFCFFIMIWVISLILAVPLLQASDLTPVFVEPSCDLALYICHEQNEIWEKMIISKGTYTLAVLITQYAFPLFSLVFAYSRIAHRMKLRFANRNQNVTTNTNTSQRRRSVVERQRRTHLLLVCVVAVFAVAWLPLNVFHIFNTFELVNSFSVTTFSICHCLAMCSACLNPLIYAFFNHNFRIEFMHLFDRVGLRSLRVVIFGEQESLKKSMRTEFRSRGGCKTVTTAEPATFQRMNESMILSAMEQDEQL
Procedure: as §1, §2, §3

CEGPCR4 = molecular target: T4, CEGPCR4 (C. elegans); experiment: competition binding assay, CEGPCR4/CHO membranes; IC50 range printed once for block r39-r54
T4 construct: Expressed in CHO cells; also called CEGPCR4 receptor; CEGPCR4/CHO membranes
T4 chain: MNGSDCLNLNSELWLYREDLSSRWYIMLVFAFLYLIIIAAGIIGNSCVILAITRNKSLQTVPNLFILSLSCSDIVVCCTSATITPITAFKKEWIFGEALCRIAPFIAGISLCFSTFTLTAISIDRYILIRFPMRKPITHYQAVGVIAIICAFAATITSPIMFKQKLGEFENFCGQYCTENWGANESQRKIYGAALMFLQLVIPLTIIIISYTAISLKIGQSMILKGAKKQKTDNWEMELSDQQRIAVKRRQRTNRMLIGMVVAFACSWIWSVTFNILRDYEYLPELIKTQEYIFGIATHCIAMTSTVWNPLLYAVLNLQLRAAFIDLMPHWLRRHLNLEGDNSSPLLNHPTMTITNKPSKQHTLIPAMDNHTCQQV

[1] = Table 10, one range for the group of peptides, read-out: EC50 range
[2] = EC50 range, Table 9, one range for the group of peptides
[3] = EC50 range, Table 11, one range for the group, results apply to all CEGPCR12 isoforms

## FDDYGHLRF-NH2 [FDDYGHLRF-NH2]
CEGPCR12h receptor; Table 11, one range for the group, results apply to all CEGPCR12 isoforms, read-out: EC50 range
  EC50: 0.3 to 0.5 µM

## SPLGTMRF-NH2 [SPLGTMRF-NH2]
CEGPCR16 receptor; [1]
  EC50: 0.06 to 0.3 µM

## DVPGVLRF-NH2 [DVPGVLRF-NH2]
CEGPCR12h receptor; Table 11
  activity at single concentration: active at
CEGPCR16 receptor; [1]
  EC50: 0.7 to 4.6 µM

## AVPGVLRF-NH2 [AVPGVLRF-NH2]
CEGPCR12h receptor; Table 11
  activity at single concentration: active at
CEGPCR16 receptor; [1]
  EC50: 0.7 to 4.6 µM

## GMPGVLRF-NH2 [GMPGVLRF-NH2]
CEGPCR12h receptor; Table 11
  activity at single concentration: active at
CEGPCR16 receptor; [1]
  EC50: 0.06 to 0.3 µM
CEGPCR5
  EC50: 1 to 8 µM

## AGPRFIRF-NH2 [AGPRFIRF-NH2]
CEGPCR5
  EC50: 1 to 8 µM

## SEVPGVLRF-NH2 [SEVPGVLRF-NH2]
CEGPCR16 receptor; [1]
  EC50: 0.7 to 4.6 µM

## EIPGVLRF-NH2 [EIPGVLRF-NH2]
CEGPCR16 receptor; [1]
  EC50: 0.7 to 4.6 µM

## KPNFLRY-NH2 [KPNFLRY-NH2]
CEGPCR5; [2]
  EC50: 1 to 8 µM

## SDRNFLRF-NH2 [SDRNFLRF-NH2]
CEGPCR5; [2]
  EC50: 0.08 to 0.8 µM

## TDVDHVFLRF-NH2 [TDVDHVFLRF-NH2]
CEGPCR12h receptor; [3]
  EC50: 1.5 to 3 µM

## KSVPGVLRF-NH2 [KSVPGVLRF-NH2]
CEGPCR12h receptor; Table 11
  activity at single concentration: active at
CEGPCR16 receptor; [1]
  EC50: 0.7 to 4.6 µM
CEGPCR5
  EC50: 1 to 8 µM

## CC(C)C[C@H](NC(=O)[C@H](Cc1ccccc1)NC(=O)[C@@H](NC(=O)[C@H](Cc1c[nH]cn1)NC(=O)[C@H](CC(=O)O)NC(=O)[C@@H](NC(=O)[C@H](CC(=O)O)NC(=O)[C@@H]1CCCN1C(=O)[C@@H](N)Cc1ccc(O)c(I)c1)C(C)C)C(C)C)C(=O)N[C@@H](CCCNC(=N)N)C(=O)N[C@@H](Cc1ccccc1)C(N)=O [[I]Y^0PDVDHVFLRF-NH2] (H-[Tyr(3-I)]PDVDHVFLRF-NH2)
CEGPCR12h receptor; EC50
  EC50: 0.478 µM
CEGPCR12h receptor; [3]
  EC50: 0.3 to 0.5 µM

## EIVFHQISPIFFRF-NH2 [EIVFHQISPIFFRF-NH2]
CEGPCR5
  EC50: 1 to 8 µM

## GDVPGVLRF-NH2 [GDVPGVLRF-NH2]
CEGPCR12h receptor; Table 11
  activity at single concentration: active at
CEGPCR16 receptor; [1]
  EC50: 0.7 to 4.6 µM

## CC(C)C[C@H](NC(=O)[C@H](Cc1ccccc1)NC(=O)[C@@H](NC(=O)[C@H](Cc1c[nH]cn1)NC(=O)[C@H](CC(=O)O)NC(=O)[C@@H](NC(=O)[C@H](CC(=O)O)NC(=O)[C@@H]1CCC(=O)N1)C(C)C)C(C)C)C(=O)N[C@@H](CCCNC(=N)N)C(=O)N[C@@H](Cc1ccccc1)C(N)=O [pQDVDHVFLRF-NH2] ([pGlu]DVDHVFLRF-NH2)
CEGPCR12h receptor; [3]
  EC50: 1.5 to 3 µM

## ARGPQLRLRF-NH2 [ARGPQLRLRF-NH2]
CEGPCR5; [2]
  EC50: 1 to 8 µM

## KHEYLRF-NH2 [KHEYLRF-NH2]
CEGPCR5
  EC50: 1 to 8 µM

## AGAKFIRF-NH2 [AGAKFIRF-NH2]
CEGPCR5
  EC50: 1 to 8 µM

## DFDGAMPGVLRF-NH2 [DFDGAMPGVLRF-NH2]
CEGPCR16 receptor; [1]
  EC50: 0.7 to 4.6 µM

## EDGNAPFGTMRF-NH2 [EDGNAPFGTMRF-NH2]
CEGPCR16 receptor; [1]
  EC50: 0.06 to 0.3 µM

## YGLGPRPLRF-NH2 [YGLGPRPLRF-NH2]
CEGPCR5; [2]
  EC50: 0.08 to 0.8 µM

## SADDSAPFGTMRF-NH2 [SADDSAPFGTMRF-NH2]
CEGPCR16 receptor; [1]
  EC50: 0.06 to 0.3 µM

## DPSFLRF-NH2 [DPSFLRF-NH2]
CEGPCR5
  EC50: 0.08 to 0.8 µM

## KPNFLRF-NH2 [KPNFLRF-NH2]
CEGPCR5
  EC50: 1 to 8 µM

## EAEEPLGTMRF-NH2 [EAEEPLGTMRF-NH2]
CEGPCR16 receptor; [1]
  EC50: 0.06 to 0.3 µM

## SAEPFGTMRF-NH2 [SAEPFGTMRF-NH2]
CEGPCR16 receptor; [1]
  EC50: 0.06 to 0.3 µM

## SVPGVLRF-NH2 [SVPGVLRF-NH2]
CEGPCR12h receptor; Table 11
  activity at single concentration: active at
CEGPCR16 receptor; [1]
  EC50: 0.06 to 0.3 µM
CEGPCR16 receptor; read-out: EC50
  EC50: 0.064 µM
CEGPCR5
  EC50: 0.08 to 0.8 µM

## TNRNFLRF-NH2 [TNRNFLRF-NH2]
CEGPCR5; [2]
  EC50: 0.08 to 0.8 µM

## GVLRF-NH2 (synthetic) [GVLRF-NH2]
CEGPCR4
  binding result: binds

## YGVLRF-NH2 (synthetic) [Y-GVLRF-NH2]
CEGPCR4
  binding result: binds

## PGVLRF-NH2 (synthetic) [PGVLRF-NH2]
CEGPCR4
  binding result: binds

## Ac-GVLRF-NH2 (synthetic) [Ac-GVLRF-NH2]
CEGPCR4
  binding result: binds

## VPGVLRF-NH2 (synthetic) [VPGVLRF-NH2]
CEGPCR4
  binding result: binds
